In patent publication US6740663B2, “Mono- and di-fluorinated benzothiepine compounds as inhibitors of apical sodium co-dependent bile acid transport (ASBT) and taurocholate uptake” (G.D. Searle, LLC, priority 2001, dated 2004):

SMILES | melting point
CCCCC1(CCCC)CS(=O)(=O)c2ccc(N(C)C)cc2[C@@H](c2cccc(NC(=O)OCCC[N+]34CCN(CC3)CC4)c2)[C@H]1O.[Cl-] | 218 to 225 °C
CCCCC1(CCCC)CS(=O)(=O)c2ccc(N(C)C)cc2[C@@H](c2cccc(NC(=O)Nc3cccc(C[N+]45CCN(CC4)CC5)c3)c2)[C@H]1O.[Cl-] | 246 to 248 °C
CCCC[C@]1(CC)CS(=O)(=O)c2ccc(N3CCCC3)cc2[C@@H](c2ccc(F)cc2)[C@H]1O [Compound 82, (3α,4β,5β)3-Butyl-3-ethyl-5-(4′-fluoropheny)-4-hydroxy-7-(1-pyrrolidinyl)-2,3,4,5-tetrahydrobenzothiepine-1,1-dioxide] | 174.5 to 177 °C
CCCC[C@]1(CC)CS(=O)(=O)c2ccc(N3CCOCC3)cc2[C@@H](c2ccc(F)cc2)[C@H]1O [Compound 83, (3α,4β,5β)3-Butyl-3-ethyl-5-(4′-fluorophenyl)-4-hydroxy-7-(1-morpholinyl)-2,3,4,5-tetrahydrobenzothiepine-1,1-dioxide] | 176.5 to 187.5 °C
CCCCC1(CCCC)CS(=O)(=O)c2ccc(N(C)C)cc2[C@@H](c2ccc(OCCCCS(N)(=O)=O)cc2)[C@H]1O [Example 1405] | 108 to 110 °C
CCCCC1(CCCC)CS(=O)(=O)c2ccc(N(C)C)cc2[C@@H](c2ccc(OCCCCCC(C(=O)O)C(=O)O)cc2)[C@H]1O [Example 1413, (4S-cis)-[5-[4-[3,3-Dibutyl-7-(dimethylamino)-2,3,4,5-tetrahydro-4-hydroxy-1,1-dioxido-1-benzothiepin-5-yl]phenoxy]pentyl]propanedioic Acid] | 118 °C
CCCCC1(CCCC)CS(=O)(=O)c2ccc(N(C)C)cc2[C@@H](c2ccc(OCCCCC[N+](C)(C)CC[N+](C)(C)CC)cc2)[C@H]1O [Example 1418, (4R-cis)-N-[5-[4-[3,3-Dibutyl-7-(dimethylamino)-2,3,4,5-tetrahydro-4-hydroxy-1,1-dioxido-1-benzothiepin-5-yl]phenoxy]pentyl]-N′-ethyl-N,N,N′,N′-tetramethyl-1,2-ethanediaminium Dichloride] | 193 to 197 °C
CCCCC1(CCCC)CS(=O)(=O)c2ccc(N(C)C)cc2[C@@H](c2ccc(OCCCCCc3nn[nH]n3)cc2)[C@H]1O [Example 1420, (4R-cis)-3,3-Dibutyl-7-(dimethylamino)-2,3,4,5-tetrahydro-5-[4-[[5-(1H-tetrazol-5-yl)pentyl]oxy]phenyl]-1-benzothiepin-4-ol 1,1-Dioxide] | 80 to 85 °C
CCCCC1(CCCC)CS(=O)(=O)c2ccc(N(C)C)cc2[C@@H](c2ccc(OCCCCCOc3cc(C(=O)O)nc(C(=O)O)c3)cc2)[C@H]1O [Example 1421, (4R-cis)-4-[[5-[4-[3,3-Dibutyl-7-(dimethylamino)-2,3,4,5-tetrahydro-4-hydroxy-1,1-dioxido-1-1benzothiepin-5-yl]phenoxy]pentyl]oxy]-2,6-pyridinecarboxylic Acid] | 143 °C
CCCCC1(CCCC)CS(=O)(=O)c2ccc(N(C)C)cc2[C@@H](c2ccc(OCCCCCNC(=N)N)cc2)[C@H]1O [Example 1422, (4R-cis)-[5-[4-[3,3-Dibutyl-7-(dimethylamino)-2,3,4,5-tetrahydro-4-hydroxy-1,1-dioxido-1-benzothiepin-5-yl]phenoxy]pentyl]guanidine] | 67 to 72.5 °C
CCCCC1(CCCC)CS(=O)(=O)c2ccc(N(C)C)cc2[C@@H](c2ccc(OCc3ccc(C(=O)O)cc3)cc2)[C@H]1O [Example 1424, (4R-cis)-4-[[4-[3,3-Dibutyl-7-(dimethylamino)-2,3,4,5-tetrahydro-4-hydroxy-1,1-dioxido-1-benzothiepin-5-yl]phenoxy]methyl]benzoic Acid] | 156 to 159 °C
CCCCC1(CCCC)CS(=O)(=O)c2ccc(N(C)C)cc2[C@@H](c2ccc(OCc3cccc(CCC(=O)O)n3)cc2)[C@H]1O [Example 1430, (4R-cis)-6-[[4-[3,3-Dibutyl-7-(dimethylamino)-2,3,4,5-tetrahydro-4-hydroxy-1,1-dioxido-1-benzothiepin-5-yl]phenoxy]methyl]-2-pyridinepropanoic Acid] | 105 to 107 °C
CCCCC1(CCCC)CS(=O)(=O)c2ccc(N(C)C)cc2[C@@H](c2ccc(OCCOCCC(C(=O)O)C(=O)O)cc2)[C@H]1O [Example 1432, (4S-cis)-[2-[2-[4-[3,3-Dibutyl-7-(dimethylamino)-2,3,4,5-tetrahydro-4-hydroxy-1,1-dioxido-1-benzothiepin-5-yl]phenoxy]ethoxy]ethyl]propanedioic Acid] | 119.5 °C
